The values below come from PubChem BioAssay (NCI).

Holding throughout (assay): NCI tumour cell line growth inhibition, 48 h
Assay [1] has as its system SNB-19 CNS.
The test system of assay [2] is HS 578T breast.
For assay [3], the system named is SF-295 CNS.
The test system of assay [4] is HOP-92 NSCLC.
For assay [5], the system named is PC-3 prostate.
In assay [6] the test system is CAKI-1 renal.
For assay [7], the system named is HT29 colon.
Assay [8] concerns UACC-257 melanoma.
For assay [9], the system named is SF-539 CNS.
Assay [10] relates to BT-549 breast.

SMILES strings stand for the structures.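 Compound exposure: 48 hours, 5 concentrations, 96-well plates. GI50: concentration for 50% inhibition of growth. TGI: concentration producing complete growth inhibition.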

Consider `CCCCN(CC)c1ncnc2ccc(Br)cc12`, for which the GI50 was 35.2 µM in assay [1]; 13.1 µM in assay [2]; 17.8 µM in assay [3]; 9.44 µM in assay [4]; 18.9 µM in assay [5]; 8.7 µM in assay [6]. The TGI in assay [1] is over 100 µM; in assay [2] it was 35.9 µM; in assay [3], 38.3 µM; in assay [4], 33.8 µM; in assay [5], 49.6 µM; in [6], 29 µM.

Regarding `COC(=O)[C@]1(C)C(OC)=CC(=O)C2C1[C@H]1CCC[C@@H]21` (stereo partly drawn), the TGI in assay [7], in assay [8], in [1], in assay [9], in assay [3] and in assay [4] was over 100 µM in each case. The TGI in assay [6] was over 100 µM.

Consider `COc1ccccc1NC(=O)C1=C(C)NC(C)=C(C(=O)Nc2ccccc2OC)C1c1ccc(N(C)C)cc1`, for which the TGI was over 100 µM in assay [7]; over 100 µM in assay [8]; over 100 µM in assay [1]; 73.7 µM in assay [9]; over 100 µM in assay [3]; 38.6 µM in assay [4]. For the same compound, in assay [6], the TGI was 89.1 µM.

With `COc1cc(/C=C/c2ccc(OC)c(OC)c2OC)cc(OC)c1OC`, the TGI in assay [7] is over 63.9 µM; in assay [8], 52.8 µM; in assay [1], 97.9 µM; in assay [9], 37 µM; in assay [3], 55.7 µM; in assay [4], 31.8 µM. The TGI in assay [6] is over 96.4 µM.

In the case of `COC(=O)C(CC(=O)c1c[nH]c2ccccc12)c1c[nH]c2ccccc12` (stereo not drawn), the TGI in [7] was 31.2 µM; in assay [8], 30.4 µM; in assay [9], 39.5 µM; in [3], over 10 µM; in assay [6] it was 70.8 µM.

For `CS(=O)(=O)NNS(=O)(=O)c1ccc(Cl)cc1`, the TGI in [7], in assay [8], in assay [1], in [9], in assay [3] and in assay [6] was over 100 µM throughout.

With `CCOC(=O)c1c(-c2ccccc2)c(C(OC(c2ccccc2)c2c(-c3ccccc3)c(C(=O)OCC)n3ccccc23)c2ccccc2)c2ccccn12` (stereo not drawn), the TGI in assay [7], in [8], in [1], in [3] and in [6] was over 100 µM in each case.

As to `COc1nc(C)cc2c(=O)n(-c3ccccc3)n(CC(O)CN3CCN(c4ccc(Cl)cc4)CC3)c(=O)c12` (stereo not drawn), the GI50 is over 50 µM in [7]; 17.5 µM in assay [1]; 22.7 µM in [9]; 18.8 µM in assay [2]; 36.4 µM in [3]; 7.08 µM in assay [4]. In addition, the GI50 in [5] is 25.9 µM; in [6] it was over 50 µM. Besides, the TGI is over 50 µM in assay [7]; over 50 µM in [1]; over 50 µM in [9]; over 50 µM in assay [2]; over 50 µM in [3]; 18.5 µM in assay [4]. Also, the TGI in assay [5] and in assay [6] was over 50 µM throughout.

On to `ClCc1ccc(C2OCCO2)cc1`, for which the TGI in [7] is 32.6 µM; in assay [8], 31.6 µM; in assay [1] it was over 59 µM; in assay [9], over 56.7 µM; in assay [3] it was 35.5 µM; in [4], 38.2 µM.

Consider `CC1(C)C=[N+]([O-])C(C)(C)N1O`, for which the TGI in assay [7], in [8], in [1], in assay [3], in assay [10] and in assay [4] was over 10 µM in each case. In addition, the TGI in assay [5] and in [6] was over 10 µM in each case.

For `COC(=O)c1ccc(C(=O)OC)c2nc3cc(C)ccc3nc12`, the TGI in assay [7], in assay [8], in assay [1], in assay [9], in [3] and in [4] was over 100 µM each time. In [6], this compound displayed a TGI of over 100 µM.

`Cc1cccc(N=C2NC(=O)C(CC(=O)Nc3ccc(C)cc3C)S2)c1` (stereo not drawn): the TGI in [7], in [8], in assay [1], in [9], in assay [3] and in [4] was over 100 µM each time. In assay [6], this compound gave a TGI of over 100 µM.

As for `CC(/C=C/NNC1=NC(c2ccccc2)C(c2ccccc2)=NN1)Sc1ccccc1N` (stereo not drawn), the TGI in assay [7] amounted to 23.9 µM; in assay [8] it was 19.9 µM; in [1], 25.1 µM; in assay [9] it was 20.9 µM; in assay [3] it was 22.4 µM; in assay [4], 22.8 µM. The same compound yielded a TGI in [6] of 28 µM.

In the case of `COc1c(Sc2ccccc2)cc(Sc2ccccc2)c2cccnc12`, the TGI in assay [7] is 71.1 µM; in assay [8], 41.1 µM; in assay [1], over 100 µM; in assay [9], 85.5 µM; in assay [3], 78.6 µM; in [6], 70.7 µM.

Take `COc1ccc2ccccc2c1CN1CCOCCOCCN(Cc2c(OC)ccc3ccccc23)CCOCCOCC1`: the TGI was over 44 µM in assay [7]; 65.5 µM in assay [8]; over 100 µM in assay [1]; over 68.8 µM in assay [9]; over 100 µM in [3]; over 70 µM in assay [4]. Moreover, in assay [6], the TGI is over 100 µM.

As for `Nc1ccc(C(=O)CC2(O)C(=O)Nc3c(Cl)cc(Cl)cc32)cc1` (stereo not drawn), the TGI in assay [7], in assay [8], in [1], in assay [9], in [3] and in [4] was over 100 µM in each case.

In the case of `[N-]=[N+]=CC(=O)COC(=O)c1ccccc1`, the TGI in assay [7], in assay [8], in assay [1], in [9], in assay [3] and in assay [10] was over 100 µM each time. The TGI in assay [4], in assay [5] and in assay [6] was over 100 µM each time.
